Experimental findings from patent US20240279302A1, “OLFACTORY RECEPTOR EXPRESSING METHOD AND RESPONSE MEASUREMENT METHOD” (Kao Corporation, priority 2021, published 2024) are described below.

Common to all, as to assay: Luciferase assay, sulfur compounds
Holding throughout (assay type): cell-based

The target in one experiment is T1, consensus OR12D3 (Homo sapiens, UniProt Q9UGF7, A145V/C216Y/C85S/G168H/G17S/G27V/H163R/I149T/M273V/M276I/M298L/M46I/M7V/S165N/S188G/S42A/S70C/S86T/V219I/V48I/V84L/Y177C).
T1 construct: expressed in transfected cells; host or cells: HEK293
T1 sequence (Q9UGF7 1-315 M7V/G17S/G27V/S42A/M46I/V48I/S70C/V84L/C85S/S86T/A145V/I149T/H163R/S165N/G168H/Y177C/S188G/C216Y/V219I/M273V/M276I/M298L): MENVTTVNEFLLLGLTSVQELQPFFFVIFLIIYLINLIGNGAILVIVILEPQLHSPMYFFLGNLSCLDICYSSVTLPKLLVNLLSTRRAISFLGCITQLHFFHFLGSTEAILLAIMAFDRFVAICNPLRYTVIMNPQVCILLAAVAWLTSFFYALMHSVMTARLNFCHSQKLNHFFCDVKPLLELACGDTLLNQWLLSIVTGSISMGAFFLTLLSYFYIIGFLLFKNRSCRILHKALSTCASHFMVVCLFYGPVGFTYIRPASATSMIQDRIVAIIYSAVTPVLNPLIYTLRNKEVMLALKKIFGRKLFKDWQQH
Conditions: in the presence of a copper ion. How it is done: (§1) A reaction solution as to each consensus olfactory receptor prepared in Examples described above was prepared according to the composition shown in Table 4, left standing for 20 minutes in a clean bench, and then added to each well of a 96-well plate (Becton, Dickinson and Company). The original olfactory receptor was used as to OR4S2. Composition shown in Table 20 was used as to OR11H2 and OR4E2. Subsequently, 100 μL of HEK293 cells suspended in DMEM (Nacalai Tesque, Inc.) was inoculated at 2×10^5 cells/cm^2 to each well, and cultured for 24 hours in an incubator kept at 37° C. and 5% CO2. Cells expressing no olfactory receptor (Mock) were provided as a control.
(§2) The medium was removed from the cultures prepared in 1), and 75 μL of a test substance solution (methyl mercaptan (MeSH) (CAS: 74-93-1, Tokyo Chemical Industry Co., Ltd.), dimethyl sulfide (DMS) (CAS: 75-18-3, FUJIFILM Wako Pure Chemical Corp.), dimethyl disulfide (DMDS) (CAS: 624-92-0, Tokyo Chemical Industry Co., Ltd.), concentration range: 0 μM, 1 μM, 3 μM, 10 μM, 30 μM, 100 μM, and 300 μM, or dimethyl trisulfide (DMTS) (CAS: 3658-80-8, Tokyo Chemical Industry Co., Ltd.), concentration range: 0 μM, 0.1 μM, 0.3 μM, 1 μM, 3 μM, 10 μM, and 30 μM) prepared with a fresh medium was added thereto. Under a copper ion addition condition, the test substance solution was adjusted to contain 30 μM copper(II) chloride (FUJIFILM Wako Pure Chemical Corp.) in addition to the odorant. The cells were cultured for 4 hours in a CO2 incubator and the luciferase gene was expressed sufficiently in the cells. Luciferase activity was measured using Dual-Glo™ luciferase assay system (Promega Corp.) in accordance with the operation manual of the product. A luminescence value derived from firefly luciferase induced by test substance stimulation in each well of the 96-well plate was divided by a luminescence value derived from Renilla luciferase to calculate a value (fluc/hRluc) as a signal, which was then used in analysis. The signal under each transfection condition was normalized with the signal value (fluc/hRluc) under an odorant stimulation-free condition defined as 0% and the signal value (fluc/hRluc) by stimulation with 10 μM forskolin defined as 100%, and used as a response (%) in analysis.

For another experiment, the target named is T2, consensus OR2L13 (Homo sapiens, UniProt Q8N349, C217Y/C28L/D174N/F161Y/F208L/F25L/F309S/G145I/H228R/H49R/H6Q/I211L/I240C/I248T/I24L/L123V/L17F/L185P/R301T/S128P/S215A/T115A/T149I/T189M/Y130H/Y82F).
T2 construct: Flag (N); Rho tag (N); expressed in transfected cells; host or cells: HEK293
T2 sequence (Q8N349 1-312 H6Q/L17F/I24L/F25L/C28L/H49R/Y82F/T115A/L123V/S128P/Y130H/G145I/T149I/F161Y/D174N/L185P/T189M/F208L/I211L/S215A/C217Y/H228R/I240C/I248T/R301T/F309S): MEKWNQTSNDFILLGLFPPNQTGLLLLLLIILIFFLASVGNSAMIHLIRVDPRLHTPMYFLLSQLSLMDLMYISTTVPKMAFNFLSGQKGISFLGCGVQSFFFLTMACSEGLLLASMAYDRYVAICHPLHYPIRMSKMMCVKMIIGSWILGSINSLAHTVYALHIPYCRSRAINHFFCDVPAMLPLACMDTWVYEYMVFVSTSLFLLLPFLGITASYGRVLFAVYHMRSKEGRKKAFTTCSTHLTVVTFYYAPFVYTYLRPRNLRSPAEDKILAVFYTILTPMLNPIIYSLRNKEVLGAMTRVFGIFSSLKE
Conditions: in the presence of a copper ion. On the procedure: as §1, §2

The target in another experiment is T3, consensus OR2T4 (Homo sapiens, UniProt Q8NH00, A104M/A342V/C83S/E340G/F135L/G202R/G259R/I245V/L252F/L277M/L47V/N218K/R201C/S177A/T338N/V244T/V317L).
T3 construct: expressed in transfected cells; host or cells: HEK293
T3 sequence (Q8NH00 with tags, fused parts or gaps L47V/C83S/A104M/F135L/S177A/R201C/G202R/N218K/V244T/I245V/L252F/G259R/L277M/V317L/T338N/E340G/A342V): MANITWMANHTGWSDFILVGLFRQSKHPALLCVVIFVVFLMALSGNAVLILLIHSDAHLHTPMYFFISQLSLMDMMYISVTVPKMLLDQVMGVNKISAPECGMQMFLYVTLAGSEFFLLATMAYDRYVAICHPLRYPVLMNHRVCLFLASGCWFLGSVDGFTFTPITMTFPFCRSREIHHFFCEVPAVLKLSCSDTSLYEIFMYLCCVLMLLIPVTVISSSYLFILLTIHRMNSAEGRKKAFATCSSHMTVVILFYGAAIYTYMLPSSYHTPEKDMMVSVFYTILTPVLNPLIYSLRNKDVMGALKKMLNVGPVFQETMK
How it is done:
as §1, §2

The target of the next experiment is T4, consensus OR2T29 (Homo sapiens, UniProt Q8NH02, A149V/A76M/C55S/F147L/I190K/I217V/K41M/L14S/L223S/L224F/L249M/L87M/M19V/M302T/M75V/R23S/R6W/S169T/S32C/S61T/T121A/T189M/V229I/V48I/V96I/W176R).
T4 construct: expressed in transfected cells; host or cells: HEK293
T4 sequence (Q8NH02 with tags, fused parts or gaps R6W/L14S/M19V/R23S/S32C/K41M/V48I/C55S/S61T/M75V/A76M/L87M/V96I/T121A/F147L/A149V/S169T/W176R/T189M/I190K/I217V/L223S/L224F/V229I/L249M/M302T): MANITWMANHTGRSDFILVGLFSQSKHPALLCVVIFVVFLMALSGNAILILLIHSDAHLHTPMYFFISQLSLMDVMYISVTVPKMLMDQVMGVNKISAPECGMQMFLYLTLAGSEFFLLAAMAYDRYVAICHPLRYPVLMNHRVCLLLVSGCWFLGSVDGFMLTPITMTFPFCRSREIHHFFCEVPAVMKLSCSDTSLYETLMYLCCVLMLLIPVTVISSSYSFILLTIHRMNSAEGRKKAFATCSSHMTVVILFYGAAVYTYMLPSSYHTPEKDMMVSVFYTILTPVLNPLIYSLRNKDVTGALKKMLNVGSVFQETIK
How it is done:
as §1, §2

[1] abbreviates: in the presence of a copper ion.

Take `CSSC` [dimethyl disulfide]: the “response of consensus OR12D3” value on consensus OR12D3 is listed as “responded”. Besides, the “response of consensus OR2L13” value at consensus OR2L13 is “responded”. Moreover, the “response of consensus OR2T4” value on consensus OR2T4 (setting [1]) is reported as “responded”. Further, on consensus OR2T29 (setting [1]), the “response of consensus OR2T29” value is given as “responded”.
A word on the EC50: it is the concentration at which the effect is half-maximal. Higher therefore signals weaker potency. For the compound `CS` [methyl mercaptan], at consensus OR12D3, the “response of consensus OR12D3” value is listed as “responded”. Besides, the “response of consensus OR2L13” value on consensus OR2L13 was “responded”. In addition, the midpoint of the response at consensus OR2T4, the EC50, lay at 340 µM. Moreover, at consensus OR2T4 (setting [1]), the “dose dependence of the response of consensus OR2T4” value was “dose-dependent response” and the “response of consensus OR2T4” value is listed as “responded”. On consensus OR2T29, this compound gave an EC50 of 85 µM. At consensus OR2T29 (setting [1]), the “dose dependence of the response of consensus OR2T29” value was “dose-dependent response” and the “response of consensus OR2T29” value is given as “responded”.
Take `CSSSC` [dimethyl trisulfide]: the “response of consensus OR12D3” value at consensus OR12D3 is “responded”. At consensus OR2L13, the “response of consensus OR2L13” value is “responded”. The “response of consensus OR2T4” value on consensus OR2T4 (setting [1]) is “responded”. In addition, on consensus OR2T29 (setting [1]), the “response of consensus OR2T29” value is recorded as “responded”.
